Like-named read-outs stand apart in the source and are kept apart here.
Key:
Drosophila OR10a = biological target: T1, Drosophila OR10a (Drosophila melanogaster, UniProt Q9VYZ1); experiment: Calcium ion fluorescence (GCaMP6) assay, OR10a stable HEK293 cell line; type: cell-based
T1 construct: expressed in transfected cells
T1 sequence (Q9VYZ1 1-406): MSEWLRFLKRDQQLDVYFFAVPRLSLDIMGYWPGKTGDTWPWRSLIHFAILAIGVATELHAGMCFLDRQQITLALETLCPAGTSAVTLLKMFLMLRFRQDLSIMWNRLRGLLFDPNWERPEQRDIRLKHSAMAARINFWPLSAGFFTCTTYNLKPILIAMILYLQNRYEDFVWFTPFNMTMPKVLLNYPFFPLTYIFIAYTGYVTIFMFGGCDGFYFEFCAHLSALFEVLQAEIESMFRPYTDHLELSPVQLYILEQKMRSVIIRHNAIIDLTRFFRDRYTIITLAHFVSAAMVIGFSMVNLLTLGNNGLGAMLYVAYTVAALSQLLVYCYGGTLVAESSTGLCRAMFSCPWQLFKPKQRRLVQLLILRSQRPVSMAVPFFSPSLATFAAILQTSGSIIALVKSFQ
T1 sequence (Q9VNB5 1-486 partner): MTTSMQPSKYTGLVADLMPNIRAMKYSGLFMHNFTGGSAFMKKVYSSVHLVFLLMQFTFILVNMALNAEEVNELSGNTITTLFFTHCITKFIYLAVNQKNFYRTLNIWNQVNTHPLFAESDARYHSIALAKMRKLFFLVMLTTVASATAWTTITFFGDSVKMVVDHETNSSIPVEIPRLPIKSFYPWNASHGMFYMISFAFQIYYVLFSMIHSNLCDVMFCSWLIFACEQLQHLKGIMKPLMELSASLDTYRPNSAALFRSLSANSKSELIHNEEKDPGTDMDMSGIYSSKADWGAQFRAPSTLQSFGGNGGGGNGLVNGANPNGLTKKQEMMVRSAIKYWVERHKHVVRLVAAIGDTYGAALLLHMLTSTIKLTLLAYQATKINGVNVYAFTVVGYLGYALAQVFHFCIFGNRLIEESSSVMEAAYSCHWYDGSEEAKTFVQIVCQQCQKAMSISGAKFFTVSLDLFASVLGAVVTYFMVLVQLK
In short: (§1)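 Responses are VUAA1-normalized ΔF: each VOC-evoked calcium signal, (FMAX−F0)/F0 over 30 s after injection, divided by the same line's mean 50 µM VUAA1 response. Cells were doxycycline-induced HEK293 with GCaMP6 and the cognate Drosophila OR, in HEPES buffer pH 7.3; ligands tested 0.01–100 μM.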

Drosophila OR47a = biological target: T2, Drosophila OR47a (Drosophila melanogaster, UniProt P81921); experiment: Calcium ion fluorescence (GCaMP6) assay, OR47a stable HEK293 cell line; type: cell-based; conditions: for Average response: mean of biological replicates
T2 construct: expressed in transfected cells
T2 sequence (P81921 1-385): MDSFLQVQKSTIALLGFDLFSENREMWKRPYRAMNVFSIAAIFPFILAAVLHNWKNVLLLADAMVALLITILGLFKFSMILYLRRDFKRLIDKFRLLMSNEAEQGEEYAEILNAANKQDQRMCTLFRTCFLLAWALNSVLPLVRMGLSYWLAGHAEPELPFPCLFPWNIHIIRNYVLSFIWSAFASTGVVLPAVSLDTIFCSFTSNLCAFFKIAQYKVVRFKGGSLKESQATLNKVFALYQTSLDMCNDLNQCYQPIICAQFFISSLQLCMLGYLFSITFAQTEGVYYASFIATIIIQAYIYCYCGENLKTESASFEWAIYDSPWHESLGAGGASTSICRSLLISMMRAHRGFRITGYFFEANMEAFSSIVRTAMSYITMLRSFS
T2 sequence (Q9VNB5 1-486 partner): T1 sequence (Q9VNB5 1-486 partner)
In short: as §1

[1] = HEK293, 1 μM VOC, 50 μM VUAA1 = 1, responses not exceeding 0.05 considered 0, read-out: OR10a Average response (VUAA1-normalized)
[2] = HEK293, 10 μM VOC, 50 μM VUAA1 = 1, responses not exceeding 0.05 considered 0, read-out: OR10a Average response (VUAA1-normalized)
[3] = HEK293, 100 μM VOC, 50 μM VUAA1 = 1, responses not exceeding 0.05 considered 0, read-out: OR10a Average response (VUAA1-normalized)
[4] = HEK293, read-out: OR10a response (VUAA1-normalized response), VOC concentration 1 μM
[5] = HEK293, read-out: OR10a response (VUAA1-normalized response), VOC concentration 10 μM
[6] = HEK293, read-out: OR10a response (VUAA1-normalized response), VOC concentration 100 μM
[7] = ligand concentration 1 (unit not given), threshold 0.05, below shown as 0
[8] = ligand concentration 10 (unit not given), threshold 0.05, below shown as 0
[9] = ligand concentration 100 (unit not given), threshold 0.05, below shown as 0
[10] = HEK293, read-out: OR47a Average response (VUAA1-normalized)
[11] = HEK293, read-out: OR47a response (VUAA1-normalized response)
[12] = OR47a cell line, odorant cc. 1 µM
[13] = OR47a cell line, odorant cc. 10 µM
[14] = OR47a cell line, odorant cc. 100 µM
[15] = 1 μM VOC, 50 μM VUAA1 = 1, responses not exceeding 0.05 considered 0
[16] = 10 μM VOC, 50 μM VUAA1 = 1, responses not exceeding 0.05 considered 0
[17] = 100 μM VOC, 50 μM VUAA1 = 1, responses not exceeding 0.05 considered 0
[18] = concentration 1, normalized fluorescence change, values below 0.05 threshold given as 0
[19] = concentration 10, normalized fluorescence change, values below 0.05 threshold given as 0
[20] = concentration 100, normalized fluorescence change, values below 0.05 threshold given as 0
[21] = ligand concentration 10 (unit not given), 0.05 threshold, values below shown as 0

Compound	activation at 1 µM (Drosophila OR10a; [1])	activation at 10 µM (Drosophila OR10a; [2])	activation at 100 µM (Drosophila OR10a; [3])	activation at 1 µM (Drosophila OR10a; [4])	activation at 10 µM (Drosophila OR10a; [5])	activation at 100 µM (Drosophila OR10a; [6])	DF norm AVERAGE OR10a (Drosophila OR10a; [7])	DF norm AVERAGE OR10a (Drosophila OR10a; [8])	DF norm AVERAGE OR10a (Drosophila OR10a; [9])	activation at 1 µM (Drosophila OR47a; [11])	activation at 10 µM (Drosophila OR47a; [11])	activation at 100 µM (Drosophila OR47a; [11])	Average response (Drosophila OR47a; [12])	Average response (Drosophila OR47a; [13])	Average response (Drosophila OR47a; [14])	DF norm AVERAGE OR47a (Drosophila OR47a; [7])	DF norm AVERAGE OR47a (Drosophila OR47a; [8])	DF norm AVERAGE OR47a (Drosophila OR47a; [9])	OR10a Average response (VUAA1-normalized) (Drosophila OR10a; [15])	OR10a Average response (VUAA1-normalized) (Drosophila OR10a; [16])	further results
CCCCCC(=O)OCC [ethyl hexanoate]	6%	3%	8.51%	6%	0%	8.51%	0.06289	0	0.08508	6.62%	26%	67%	0.0662	0.26	0.67	0.06617	0.2596	0.6687	–	–	activation at 1 µM (Drosophila OR47a; [10]): 7%; activation at 10 µM (Drosophila OR47a; [10]): 26%; activation at 100 µM (Drosophila OR47a; [10]): 67%
CC(C)=CCC/C(C)=C/CC/C(C)=C/CO [e,e-farnesol]	–	–	–	–	–	–	0	0.06329	0	–	–	–	0.03	0.00	0.032	0	0	0	0.034	0.0633	OR10a Average response (VUAA1-normalized) (Drosophila OR10a; [17]): 0.0174; OR10a response (VUAA1-normalized response) (Drosophila OR10a; VOC concentration 1 μM): 0.00; OR10a response (VUAA1-normalized response) (Drosophila OR10a; VOC concentration 10 μM): 0.0633; OR10a response (VUAA1-normalized response) (Drosophila OR10a; VOC concentration 100 μM): 0.00; OR47a response (VUAA1-normalized response) (Drosophila OR47a; VOC concentration 1 μM): 0.00; OR47a response (VUAA1-normalized response) (Drosophila OR47a; VOC concentration 10 μM): 0.00; OR47a response (VUAA1-normalized response) (Drosophila OR47a; VOC concentration 100 μM): 0.00
(+)-beta-cedrene	–	–	–	–	–	–	–	–	–	–	–	–	0.00	0.00	0.00	–	–	–	0.0218	0.0187	DF norm AVERAGE OR10a (Drosophila OR10a): 0; OR10a Average response (VUAA1-normalized) (Drosophila OR10a; [17]): 0.00; OR10a response (VUAA1-normalized response) (Drosophila OR10a; VOC concentration 1 μM): 0.00; OR10a response (VUAA1-normalized response) (Drosophila OR10a; VOC concentration 10 μM): 0.00; OR10a response (VUAA1-normalized response) (Drosophila OR10a; VOC concentration 100 μM): 0.00; OR47a response (VUAA1-normalized response) (Drosophila OR47a; VOC concentration 1 μM): 0.00; OR47a response (VUAA1-normalized response) (Drosophila OR47a; VOC concentration 10 μM): 0.00; OR47a response (VUAA1-normalized response) (Drosophila OR47a; VOC concentration 100 μM): 0.00; DF norm AVERAGE OR47a (Drosophila OR47a; [18]): 0; DF norm AVERAGE OR47a (Drosophila OR47a; [19]): 0; DF norm AVERAGE OR47a (Drosophila OR47a; [20]): 0
CCCCCCCCCCCCCC [tetradecane]	11%	4.22%	8%	–	–	–	–	–	–	–	–	–	0.02	0.03	0.00	–	–	–	–	–	OR10a response (VUAA1-normalized) at 1 μM (Drosophila OR10a; OR10a cell line, VOC concentration 1 μM): 0.11; OR10a response (VUAA1-normalized) at 10 μM (Drosophila OR10a; OR10a cell line, VOC concentration 10 μM): 0.00; OR10a response (VUAA1-normalized) at 100 μM (Drosophila OR10a; OR10a cell line, VOC concentration 100 μM): 0.08; DF norm AVERAGE OR10a (Drosophila OR10a; ligand concentration 1 (unit not given), […]): 0.1095; DF norm AVERAGE OR10a (Drosophila OR10a; [21]): 0; DF norm AVERAGE OR10a (Drosophila OR10a; ligand concentration 100 (unit not given), […]): 0.08392; OR47a response (VUAA1-normalized) at 1 μM (Drosophila OR47a; OR47a cell line, VOC concentration 1 μM): 0.00; OR47a response (VUAA1-normalized) at 10 μM (Drosophila OR47a; OR47a cell line, VOC concentration 10 μM): 0.00; OR47a response (VUAA1-normalized) at 100 μM (Drosophila OR47a; OR47a cell line, VOC concentration 100 μM): 0.00; DF norm AVERAGE OR47a (Drosophila OR47a; ligand concentration 1 (unit not given), 0.05 threshold, values below shown as 0): 0; DF norm AVERAGE OR47a (Drosophila OR47a; [21]): 0; DF norm AVERAGE OR47a (Drosophila OR47a; ligand concentration 100 (unit not given), 0.05 threshold, values below shown as 0): 0
C=CCc1ccc(O)c(OC)c1 [eugenol]	8.49%	6%	0%	8.49%	6%	0%	0.08485	0.05743	0	0%	0%	0%	0.00	0.0283	0.0436	0	0	0	–	–	–
CC1=CCC2C(C1)C2(C)C (stereo not shown) [3-carene]	–	–	–	7%	0%	0%	–	–	–	0%	0%	0%	0.00	0.00	0.03	–	–	–	–	–	activation at 1 µM (Drosophila OR10a; HEK293, read-out: OR10a Average response (VUAA1-normalized), 1 μM VOC, 50 μM VUAA1 = 1, responses not exceeding 0.05 considered 0): 7%; activation at 10 µM (Drosophila OR10a; HEK293, read-out: OR10a Average response (VUAA1-normalized), 10 μM VOC, 50 μM VUAA1 = 1, responses not exceeding 0.05 considered 0): 0%; activation at 100 µM (Drosophila OR10a; HEK293, read-out: OR10a Average response (VUAA1-normalized), 100 μM VOC, 50 μM VUAA1 = 1, responses not exceeding 0.05 considered 0): 0%; DF norm AVERAGE OR10a (Drosophila OR10a; [18]): 0.0692; DF norm AVERAGE OR10a (Drosophila OR10a; [19]): 0; DF norm AVERAGE OR10a (Drosophila OR10a; [20]): 0; DF norm AVERAGE OR47a (Drosophila OR47a; [18]): 0; DF norm AVERAGE OR47a (Drosophila OR47a; [19]): 0; DF norm AVERAGE OR47a (Drosophila OR47a; [20]): 0

From paper PMC10709440, “High-throughput ligand profile characterization in novel cell lines expressing seven heterologous insect olfactory receptors for the detection of volatile plant biomarkers” (Scientific Reports, 2023)
